Test results taken from patent US20030065192A1, “Antimicrobial compounds and methods of use” (priority 2001, published 2003).

Key:
Aspergillus niger 16404 = test: High resolution minimum inhibitory concentration (HRMIC) test, A. niger; type: cell-based; details: for control of fungal organisms (A. niger): result in words; for MIC (ppm) A. niger: ppm active ingredient, M9GY medium, 30° C., 24 hours, average of multiple determinations
Method: (§1) Biological Activity: certain compounds of the present invention were tested for activity against three microorganisms, Escherichia coli 8739 (Gram-negative bacterium) and Staphylococcus aureus 6538 (Gram-positive bacterium) and Aspergillus niger 16404.
(§2) The lowest concentration of test compound required to inhibit Staphylococcus aureus 6538, Escherichia coli 8739 and Aspergillus niger 16404 was determined by a high resolution minimum inhibitory concentration (HRMIC) test. Varying amounts of the test compounds were added to minimal salts glucose medium (see T. Maniatis, E. F. Fritsch and J. Sambrook, Molecular Cloning, p 68 (1982)) supplemented with 0.1% yeast extract (M9GY) in a 96-well microtiter plate. […] serial dilutions were performed on a Biomek™ 2000 Workstation to obtain a range of closely spaced concentrations of test compound as shown in Table 1 (based on dilutions of a 10,000 ppm active ingredient stock solution of the test compound). The plates were inoculated with cell suspension of inoculum and adjusted to provide about 10^6 CFU (colony forming units)/ml in each well. The microtiter plates were incubated at 30° C. for 24 hours and then checked (optical density at 650 nm using a microplate reader) for the presence or absence of microbial growth in each well. […] Data reported (ppm active ingredient) are the average of multiple determinations (see Table 2).

[1] = system: Staphylococcus aureus 6538; test: High resolution minimum inhibitory concentration (HRMIC) test, S. aureus; type: cell-based; details: for MIC (ppm) S. aur: ppm active ingredient, M9GY medium, 30° C., 24 hours, average of multiple determinations
Method: as §1, §2

Escherichia coli 8739 = test: High resolution minimum inhibitory concentration (HRMIC) test, E. coli; type: cell-based; details: ppm active ingredient; M9GY medium, 30° C., 24 hours; average of multiple determinations
Method: as §1, §2

melting point [°C] | SMILES | control of fungal organisms (A. niger) (Aspergillus niger 16404) | MIC (ppm) S. aur [1] [ppm] | better control versus Gram-positive (S. aur) bacteria than compound 6 ([1]; relative to compound 6, from Table 2 MIC) [fold] | MIC (ppm) A. niger (Aspergillus niger 16404) [ppm] | MIC (ppm) E. coli (Escherichia coli 8739) [ppm]
141 to 143 | Cn1sc(Sc2cccc[n+]2[O-])cc1=O [Compound 3, [2-methyl-3-isothiazolon-5-yl]-(1-oxypyridin-2-yl)sulfide] | effective control | – | – | – | –
– | CCCCCCCCn1sc(Sc2cccc[n+]2[O-])c(Cl)c1=O [Compound 5, [4-chloro-2-n-octyl-3-isothiazolon-5-yl]-(1-oxypyridin-2-yl)sulfide] | effective control | 0.9 | 5 | 10 | 30
– | Cn1sc(Sc2nc3ccccc3s2)cc1=O [Compound 6, [2-methyl-3-isothiazolon-5-yl]-(benzothiazol-2′-yl)sulfide, reference compound] | – | 5 | – | 15 | >1000
